Experimental data reported in ChEMBL document CHEMBL5724914, “Linking interpersonal differences in gut microbiota composition and drug biotransformation activity” (2024).

Tests used:
[1] = human gut metagenome, 24 h, 2 µM
[2] = (§1) The drug is tested on Z-027 corresponding to metagenome with ENA study accession number: PRJEB37062 and ENA sample accession number: ERS12561826 for biotransformation under anaerobic condition. The drug concentrations were measured over 9 timepoints collected between 0 and 24 hours of incubation by liquid-chromatography-coupled mass spectrometry (LC–MS); conditions: 2 µM
[3] = human gut metagenome, 24 h, 2 µM; remark: listed apart in the source
[4] = (§2) The drug is tested on WLS-220 corresponding to human gut metagenome with ENA study accession number: PRJEB37062 and ENA sample accession number: ERS12561769 for biotransformation under anaerobic condition. The drug concentrations were measured over 9 timepoints collected between 0 and 24 hours of incubation by liquid-chromatography-coupled mass spectrometry (LC–MS); conditions: 2 µM
[5] = as §2, with “WLS-086” for “WLS-220”, “ERS12561752” for “ERS12561769”; conditions: 2 µM
[6] = as §2, with “Z-014” for “WLS-220”, “rat” for “human”, “ERS12561814” for “ERS12561769”; conditions: 2 µM
[7] = as §2, with “WLS-007” for “WLS-220”, “ERS12561742” for “ERS12561769”; conditions: 2 µM
[8] = as §1, with “Z-026” for “Z-027”, “ERS12561825” for “ERS12561826”; conditions: 2 µM
[9] = as §1, with “Z-021” for “Z-027”, “ERS12561820” for “ERS12561826”; conditions: 2 µM
[10] = human gut metagenome, 24 h, 2 µM; remark: listed apart in the source
[11] = human gut metagenome, 24 h, 2 µM; remark: listed apart in the source
[12] = human gut metagenome, 24 h, 2 µM; remark: listed apart in the source
[13] = as §2, with “WLS-027” for “WLS-220”, “ERS12561744” for “ERS12561769”; conditions: 2 µM
[14] = as §2, with “WLS-006” for “WLS-220”, “ERS12561741” for “ERS12561769”; conditions: 2 µM
[15] = human gut metagenome, 24 h, 2 µM; remark: listed apart in the source
[16] = as §2, with “Z-030” for “WLS-220”, “mouse” for “human”, “ERS12561829” for “ERS12561769”; conditions: 2 µM
[17] = as §2, with “WLS-310” for “WLS-220”, “ERS12561785” for “ERS12561769”; conditions: 2 µM
[18] = human gut metagenome, 24 h, 2 µM; remark: listed apart in the source
[19] = as §2, with “Z-025” for “WLS-220”, “rabbit” for “human”, “ERS12561824” for “ERS12561769”; conditions: 2 µM
[20] = human gut metagenome, 24 h, 2 µM; remark: listed apart in the source
Also: call rule not given here.

CCN(C(C)=O)c1cccc(-c2ccnc3c(C#N)cnn23)c1 [ZALEPLON]
Bacterial Biotransformation [1]: Compound metabolized
Bacterial Biotransformation [2]: Compound NOT metabolized
Bacterial Biotransformation [3]: Compound metabolized
Bacterial Biotransformation [4]: Compound metabolized
Bacterial Biotransformation [5]: Compound metabolized
Bacterial Biotransformation [6]: Compound NOT metabolized
Bacterial Biotransformation [7]: Compound metabolized
Bacterial Biotransformation [8]: Compound NOT metabolized
Bacterial Biotransformation [9]: Compound NOT metabolized
Bacterial Biotransformation [10]: Compound metabolized
Bacterial Biotransformation [11]: Compound metabolized
Bacterial Biotransformation [12]: Compound metabolized
Bacterial Biotransformation [13]: Compound metabolized
Bacterial Biotransformation [14]: Compound metabolized
Bacterial Biotransformation [15]: Compound metabolized
Bacterial Biotransformation [16]: Compound NOT metabolized
Bacterial Biotransformation [17]: Compound metabolized
Bacterial Biotransformation [18]: Compound metabolized
Bacterial Biotransformation [19]: Compound metabolized
Bacterial Biotransformation [20]: Compound metabolized
